Laboratory results: patent US7615361B2, “Toxicity screening methods” (Ceetox, Inc., priority 2006, dated 2009)

Experiments:
[1] = Cell number (propidium iodide); assay type: cell-based; details: neonatal rat cardiomyocytes; rat cardiomyocytes (CM), 24 HR exposure; read-out: Cell Number TC50
Procedure: One test compound (Compound A) was received as dry powder and evaluated for potential cytotoxicity in a battery of in vitro assays. The compound was tested using both rat cardiomyocytes (CM) from rat neonates and a rat hepatoma (H4IIE) cell line. […] Camptothecin and rotenone were included as positive control compounds. The cell supernatant or the cells themselves were harvested for biochemical analysis. General cytotoxicity was evaluated by monitoring membrane integrity, mitochondrial function, cell proliferation, oxidative stress, and apoptosis. In addition, interaction with P-glycoprotein (PgP) on H4IIE cells and solubility of the test compound were also assessed. The means of each exposure group (n=3-7) were calculated for each assay performed. Intra assay variation well-to-well was typically less than 10% with plate to plate variation typically less than 20%.
Cell Proliferation: Cell proliferation in each well was measured with propidium iodide (PI). […] The 15 nm shift enhances PI fluorescence approximately 20 times while the excitation maxima are shifted 30-40 nm. During method development experiments, it was determined that Triton-X-100 was the best solution to permeabilize the H4IIE cells thereby allowing the PI access to intracellular RNA and DNA. Fluorescence was measured using a Packard Fusion plate reader or equivalent reader at 540 nm excitation and 610 nm emission. […]

C32 cells = assay: Intracellular total glutathione (GSH); details: C32, 24 HR
Procedure: (§1) Intracellular Glutathione (GSH) Levels: Intracellular glutathione levels were determined essentially as described by Griffith (1980) with modifications. At the end of the exposure period, the medium was removed from the cells and metaphosphoric acid (MPA) was added to each well. Plates were then shaken for 5 min at room temperature and stored at −20° C. until needed.
(§2) The sample plates were thawed just prior to analysis and centrifuged at >2000×g for at least 2 min. Sample aliquots were removed and transferred to a clean 96-well plate along with appropriate standard curve controls. Sample pH was neutralized just prior to analysis and each well received an aliquot of sodium phosphate reaction buffer containing EDTA, DTNB, NADPH, and glutathione reductase. The plates were mixed for 15-30 min at room temperature and glutathione content was determined calorimetrically with a Packard Fusion or equivalent reader at 415 nm.
(§3) Intracellular Glutathione (GSH) Levels: The assay is based on the concept that all GSH is oxidized to GSSG by DTNB reagent. Two molecules of GSH are required to make one molecule of GSSG. Total GSH was determined by reducing GSSG to 2GSH with glutathione reductase. A standard curve was prepared with oxidized glutathione (GSSG) over a range of concentrations. These concentrations are then converted to glutathione equivalents (GSX) essentially by multiplying the GSSG standard concentrations by 2. The amount of GSX expressed as pmoles/well was determined using the standard curve and regression analysis.
(§4) The test compound consisted of two parts mixed in a constant ratio of 5:1. The final test mixture consisted of Test mix 1 and Test mix 2, which were received as frozen solutions. The test mixture was tested in a ratio of 5:1 COMP A in five different cell types which included the following: SK-MEL28, human hepatocytes, HUVEC, C32, and NHEM cells. Cells were seeded into 96-well plates and cultured in medium containing 10% bovine serum. Following an equilibration period of 48 hr, the cells were treated with the test compound mix at concentrations of COMP A (μg/mL)=(250:50), (125:25), (25:12.5), (12.5:2.5), (2.5:1.25), (1.25:0.25), and (0.25:0.05) for 24 hr (overnight) at 37° C. in 5% CO2. […] Following an equilibration period of 4 hr, the cells were treated with the test compound mix at concentrations of COMP A (μg/mL)=(250:50), (125:25), (25:12.5), (12.5:2.5), (2.5:1.25), (1.25:0.25), and (0.25:0.05) for 24 hr (overnight) at 37° C. in 5% CO2.
(§5) Experimental Protocol: The test compounds were shipped on dry ice for testing. The compounds were stored frozen at −80° C. until needed. Dosing solutions were prepared in complete culture medium. SK-MEL28, human hepatocytes, HUVEC, C32, and NHEM cells were used as the test systems. Cells were seeded into 96-well plates and allowed to equilibrate for approximately 48 hr. Following the equilibration period the cells were exposed to the test compound mix at concentrations of COMP A (μg/mL)=(250:50), (125:25), (25:12.5), (12.5:2.5), (2.5:1.25), (1.25:0.25), and (0.25:0.05). Solubility was determined by Nephalometry techniques immediately after dosing and prior to harvesting the cells at 24 hr. Following the exposure period, the cells or their supernatant (culture medium) were analyzed for changes in cell proliferation, membrane leakage, mitochondrial function, oxidative stress, and apoptosis. The resultant exposure concentration response curves were graphed and analyzed for determining the concentration that produced a half maximal response or TC50.

HUVEC = assay: Intracellular total glutathione (GSH); details: HUVEC, 24 HR
Procedure: as §1, §2, §3, §4, §5

human hepatocytes [2] = assay: Intracellular total glutathione (GSH); details: 24 HR
Procedure: as §1, §2, §3, §4, §5

human hepatocytes [3] = assay: Caspase 3 activity (apoptosis); assay type: cell-based; details: 24 HR
Procedure: Caspase 3 Procedure: Caspase 3 activity was determined using a caspase substrate (DEVD, Asp-Glu-Val-Asp) labeled with a fluorescent molecule, 7-Amino4-methylcoumarin (AMC). Caspase 3 cleaves the tetrapeptide between D and AMC, thus releasing the fluorogenic […] AMC. Following the test article exposure to cells in 96-well plates, medium was aspirated from plates and PBS added to each well. Plates were stored at −80° C. to lyse cells and store samples until further analysis. On the day of analysis, plates were removed from freezer and thawed. Caspase buffer with fluorescent substrate was added to each well and incubated at room temperature for 1 hr. AMC release was measured in a spectrofluorometer at an excitation wavelength of 360 nm and an emission wavelength of 460 nm. Values are expressed as relative fluorescent units (RFU).
Caspase Activity: After sample plates were completely thawed, the caspase substrate buffer mix was added to each plate. Plates were incubated at room temperature for 1hr, shielded from light. Plates were read using a in a spectrofluorometer at an excitation wavelength of 360 nm and an emission wavelength of 460 nm. Values were expressed as relative fluorescent units (RFU).
The apoptosis data is expressed in Table 2 as a ratio of the magnitude of response versus the exposure concentration that produced the response. […]

SMILES | CC50 at 24 h [1] | Percent Change in Total GSH (C32 cells) | Percent Change in Total GSH (HUVEC) | Percent Change in Total GSH (human hepatocytes [2]) | Caspase 3 Activity (Index/Dose): Index (human hepatocytes [3]) | Caspase 3 Activity (Index/Dose): Dose (human hepatocytes [3]; controls (μM section))
CC[C@@]1(O)C(=O)OCc2c1cc1n(c2=O)Cc2cc3ccccc3nc2-1 [CAMPTOTHECIN, Camptothecin] | 293 µM | −41.1% | −85.8% | −69.9% | 3 (400-600 = 3) | 100
C=C(C)[C@H]1Cc2c(ccc3c2O[C@@H]2COc4cc(OC)c(OC)cc4[C@@H]2C3=O)O1 [ROTENONE, Rotenone] |  | 12.9% | 11.3% | 95.9% |  | 
